From US9096565B2, “Inhibitors of histone deacetylase” (MethylGene Inc., priority 2007, dated 2015) come the findings set out here.

SMILES strings stand for the structures.

This test addresses one or more of HDAC-4, HDAC-5, HDAC-6, HDAC-7, HDAC-8, HDAC-9, HDAC-10 and HDAC-11. Nature of the test: Inhibition of histone deacetylase enzymatic activity (summary statement over isoforms). The class given is biochemical. Conditions: Table 3, selected examples; HDAC isoform not given. The procedure, abridged:
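HDAC enzyme mix with compound was preincubated 5 min at room temperature. Reaction was started at 37 °C with Boc-Lys(trifluoroacetyl)-AMC substrate and run 20-30 min. It was stopped with trypsin (1 mg/mL) plus a known HDAC inhibitor to release the fluorogenic AMC.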

The molecule `O=C(NO)C(c1ccccc1)c1ccc(-c2ccc(N3CCOCC3)cc2)cc1` (stereo not shown) [Compound 5-34, N-hydroxy-2-(4′-morpholinobiphenyl-4-yl)-2-phenylacetamide] displayed an IC50 of less than 1000 nM.

For `O=C(NO)C(c1ccccc1)N1CCC(c2nc3ccccc3o2)CC1` (stereo not shown) [Compound 5-35, 2-(4-(benzo[d]oxazol-2-yl)piperidin-1-yl)-N-hydroxy-2-phenylacetamide], the IC50 was less than 1000 nM.

`O=C(NO)C(c1ccccc1)c1ccc(O)cc1` (stereo not shown) [Compound 5-36, N-hydroxy-2-(4-hydroxyphenyl)-2-phenylacetamide] gave an IC50 of less than 1000 nM.

With `O=C(NO)C(c1ccccc1)c1nnc(-c2ccc(C(F)(F)F)cc2)s1` (stereo not shown) [Compound 5-37, N-hydroxy-2-phenyl-2-(5-(4-(trifluoromethyl)phenyl)-1,3,4-thiadiazol-2-yl)acetamide], the IC50 is less than 1000 nM.

`O=C(NO)C(c1ccccc1)c1nnc(-c2ccc3c(c2)OCO3)s1` (stereo not shown) [Compound 5-38, 2-(5-(benzo[d][1,3]dioxol-5-yl)-1,3,4-thiadiazol-2-yl)-N-hydroxy-2-phenylacetamide]: the IC50 was less than 1000 nM.

Molecule `O=C(NO)C(c1ccccc1)c1nnc(-c2ccccc2-c2ccccc2)s1` (stereo not shown) [Compound 5-39, 2-(5-(biphenyl-2-yl)-1,3,4-thiadiazol-2-yl)-N-hydroxy-2-phenylacetamide] gave an IC50 of 1000 to 15000 nM.

On to `O=C(NO)C(c1ccccc1)c1ccc(OCCN2CCOCC2)cc1` (stereo not shown) [Compound 5-40, N-hydroxy-2-(4-(2-morpholinoethoxy)phenyl)-2-phenylacetamide], for which the IC50 was less than 1000 nM.

Consider `O=C(NO)C(c1ccccc1)c1ccc(-c2ccc3[nH]ccc3c2)cc1` (stereo not shown) [Compound 5-41, 2-(4-(1H-indol-5-yl)phenyl)-N-hydroxy-2-phenylacetamide], for which the IC50 was less than 1000 nM.

On to `O=C(NO)C(c1ccccc1)N1CCN(C(=O)c2ccccc2)CC1` (stereo not shown) [Compound 5-42, 2-(4-benzoylpiperazin-1-yl)-N-hydroxy-2-phenylacetamide], for which the IC50 was 1000 to 15000 nM.

Regarding `O=C(NO)C(c1ccccc1)N1CCN(c2ccc(C(F)(F)F)cc2)CC1` (stereo not shown) [Compound 5-43, N-hydroxy-2-phenyl-2-(4-(4-(trifluoromethyl)phenyl)piperazin-1-yl)acetamide], the 50% inhibitory concentration (IC50) is less than 1000 nM.

On to `CCN(Cc1ccccc1)c1ccc(C(C(=O)NO)c2ccccc2)cc1` (stereo not shown) [Compound 5-44, 2-(4-(benzyl(ethyl)amino)phenyl)-N-hydroxy-2-phenylacetamide], for which the IC50 is less than 1000 nM.

For the molecule `Cc1cc(-c2ccc(C(C(=O)NO)c3ccccc3)cc2)ccc1F` (stereo not shown) [Compound 5-45, 2-(4′-fluoro-3′-methylbiphenyl-4-yl)-N-hydroxy-2-phenylacetamide], the IC50 was less than 1000 nM.

Consider `O=C(NO)C(Sc1nc2cccnc2s1)c1ccccc1` (stereo not shown) [Compound 5-46, N-hydroxy-2-phenyl-2-(thiazolo[5,4-b]pyridin-2-ylthio)acetamide], for which the IC50 was less than 1000 nM.

`O=C(NO)C(c1ccccc1)N1CCN(c2ccc(C(F)(F)F)cn2)CC1` (stereo not shown) [Compound 5-48, N-hydroxy-2-phenyl-2-(4-(5-(trifluoromethyl)pyridin-2-yl)piperazin-1-yl)acetamide] yielded an IC50 of less than 1000 nM.

In the case of `O=C(NO)C(c1ccccc1)c1ccc(-c2ccc(F)c(F)c2)cc1` (stereo not shown) [Compound 5-49, 2-(3′,4′-difluorobiphenyl-4-yl)-N-hydroxy-2-phenylacetamide], the IC50 is less than 1000 nM.

Take `COc1ccc2sc(SC(C(=O)NO)c3ccccc3)nc2c1` (stereo not shown) [Compound 5-50, N-hydroxy-2-(5-methoxybenzo[d]thiazol-2-ylthio)-2-phenylacetamide]: the IC50 was less than 1000 nM.

Take `O=C(NO)C(c1ccccc1)c1ccc(N2CCC(Cc3ccccc3)CC2)cc1` (stereo not shown) [Compound 5-51, 2-(4-(4-benzylpiperidin-1-yl)phenyl)-N-hydroxy-2-phenylacetamide]: the IC50 was less than 1000 nM.

Molecule `O=C(NO)C(c1ccccc1)c1nnc(-c2ccccc2Oc2ccccc2)s1` (stereo not shown) [Compound 5-52, N-hydroxy-2-(5-(2-phenoxyphenyl)-1,3,4-thiadiazol-2-yl)-2-phenylacetamide] displayed an IC50 of less than 1000 nM.

Take `O=C(NO)C(c1ccccc1)c1nnc(COc2ccccc2)s1` (stereo not shown) [Compound 5-53, N-hydroxy-2-(5-(phenoxymethyl)-1,3,4-thiadiazol-2-yl)-2-phenylacetamide]: the IC50 was less than 1000 nM.

`O=C(NO)C(c1ccccc1)c1nnc(-c2ccc3ccccc3c2)s1` (stereo not shown) [Compound 5-54, N-hydroxy-2-(5-(naphthalen-2-yl)-1,3,4-thiadiazol-2-yl)-2-phenylacetamide] showed an IC50 of 1000 to 15000 nM.

Molecule `O=C(NO)C(c1ccccc1)c1nnc(-c2ccc3[nH]ccc3c2)s1` (stereo not shown) [Compound 5-55, 2-(5-(1H-indol-5-yl)-1,3,4-thiadiazol-2-yl)-N-hydroxy-2-phenylacetamide] returned an IC50 of less than 1000 nM.

`O=C(NO)C1c2ccccc2N(Cc2ccccc2)c2ccccc21` [Compound 5-56, 10-benzyl-N-hydroxy-9,10-dihydroacridine-9-carboxamide] yielded an IC50 of less than 1000 nM.

In turn, `O=C(NO)C(c1ccccc1)N1CCN(c2ccc(F)cc2)CC1` (stereo not shown) [Compound 5-57, 2-(4-(4-fluorophenyl)piperazin-1-yl)-N-hydroxy-2-phenylacetamide] showed an IC50 of 1000 to 15000 nM.

`CN(C)c1ccc(-c2ccc(C(C(=O)NO)c3ccccc3)cc2)cn1` (stereo not shown) [Compound 5-58, 2-(4-(6-(dimethylamino)pyridin-3-yl)phenyl)-N-hydroxy-2-phenylacetamide]: the 50% inhibitory concentration (IC50) was less than 1000 nM.

On to `O=C(NO)C(Sc1nc2cc(Cl)ccc2s1)c1ccccc1` (stereo not shown) [Compound 5-59, 2-(5-chlorobenzo[d]thiazol-2-ylthio)-N-hydroxy-2-phenylacetamide], for which the IC50 is less than 1000 nM.

Consider `O=C(NO)C(c1ccccc1)N1CCN(C(=O)OCc2ccccc2)CC1` (stereo not shown) [Compound 5-61, benzyl 4-(2-(hydroxyamino)-2-oxo-1-phenylethyl)piperazine-1-carboxylate], for which the IC50 was in the range of 1000 to 15000 nM.

Take `O=C(NO)C(c1ccccc1)N1CCC(c2ccc(F)cc2)CC1` (stereo not shown) [Compound 5-62, 2-(4-(4-fluorophenyl)piperidin-1-yl)-N-hydroxy-2-phenylacetamide]: the IC50 was less than 1000 nM.

For `O=C(NO)C(c1ccccc1)c1ccc(C#Cc2cccnc2)cc1` (stereo not shown) [Compound 5-63, N-hydroxy-2-phenyl-2-(4-(pyridin-3-ylethynyl)phenyl)acetamide], the IC50 was less than 1000 nM.

In turn, `O=C(NO)C(c1ccccc1)c1nnc(C2c3ccccc3Oc3ccccc32)s1` (stereo not shown) [Compound 5-64, 2-(5-(9H-xanthen-9-yl)-1,3,4-thiadiazol-2-yl)-N-hydroxy-2-phenylacetamide] came in with an IC50 of less than 1000 nM.

The molecule `O=C(NO)C(c1ccccc1)c1ccc(N2CCN(Cc3ccccc3)CC2)cc1` (stereo not shown) [Compound 5-65, 2-(4-(4-benzylpiperazin-1-yl)phenyl)-N-hydroxy-2-phenylacetamide] yielded an IC50 of less than 1000 nM.

Take `O=C(NO)C(c1ccccc1)c1ccc(N2CCN(c3ccccn3)CC2)cc1` (stereo not shown) [Compound 5-66, N-hydroxy-2-phenyl-2-(4-(4-(pyridin-2-yl)piperazin-1-yl)phenyl)acetamide]: the IC50 was less than 1000 nM.

As to `O=C(NO)C(c1ccccc1)c1ccc(N2CCN(c3cccc(C(F)(F)F)c3)CC2)cc1` (stereo not shown) [Compound 5-67, N-hydroxy-2-phenyl-2-(4-(4-(3-(trifluoromethyl)phenyl)piperazin-1-yl)phenyl)acetamide], the IC50 is less than 1000 nM.

As to `O=C(NO)C(c1ccccc1)c1ccc(CCCCc2ccccc2)cc1` (stereo not shown) [Compound 5-68, N-hydroxy-2-phenyl-2-(4-(4-phenylbutyl)phenyl)acetamide], the IC50 is less than 1000 nM.

Consider `O=C(NO)C(c1ccc(N2CCCC2)cc1)c1ccc2c(c1)CCO2` (stereo not shown) [Compound 5-69, 2-(2,3-dihydrobenzofuran-5-yl)-N-hydroxy-2-(4-(pyrrolidin-1-yl)phenyl)acetamide], for which the IC50 was less than 1000 nM.

`O=C(NO)C(c1ccccc1)c1ccc(N2CCCCC2)cc1` (stereo not shown) [Compound 5-70, N-hydroxy-2-phenyl-2-(4-(piperidin-1-yl)phenyl)acetamide] registered an IC50 of less than 1000 nM.

Turning to `O=C(NO)C(c1ccccc1)N1C[C@@H]2C[C@H]1CO2` (stereo partly drawn) [Compound 5-71, 2-((1S,4S)-2-oxa-5-azabicyclo[2.2.1]heptan-5-yl)-N-hydroxy-2-phenylacetamide], the IC50 was in the range of 1000 to 15000 nM.

Turning to `O=C(NO)C(c1ccccc1)c1ccc(-n2cccn2)cc1` (stereo not shown) [Compound 5-72, 2-(4-(1H-pyrazol-1-yl)phenyl)-N-hydroxy-2-phenylacetamide], the 50% inhibitory concentration (IC50) was less than 1000 nM.

`O=C(NO)C(c1ccccc1)N1CCN(c2ccccn2)CC1` (stereo not shown) [Compound 5-73, N-hydroxy-2-phenyl-2-(4-(pyridin-2-yl)piperazin-1-yl)acetamide] returned an IC50 of less than 1000 nM.

In turn, `O=C(NO)C(c1ccccc1)c1ccc(-c2ncccc2F)cc1` (stereo not shown) [Compound 5-74, 2-(4-(3-fluoropyridin-2-yl)phenyl)-N-hydroxy-2-phenylacetamide] had an IC50 of less than 1000 nM.

With `O=C(NO)C(c1ccccc1)c1ccc(N2CCN(C(=O)OCc3ccccc3)CC2)cc1` (stereo not shown) [Compound 5-75, benzyl 4-(4-(2-(hydroxyamino)-2-oxo-1-phenylethyl)phenyl)piperazine-1-carboxylate], the IC50 is less than 1000 nM.

`O=C(NO)C(c1ccccc1)c1ccc(N2CCN(Cc3ccc4c(c3)OCO4)CC2)cc1` (stereo not shown) [Compound 5-76, 2-(4-(4-(benzo[d][1,3]dioxol-5-ylmethyl)piperazin-1-yl)phenyl)-N-hydroxy-2-phenylacetamide] displayed an IC50 of less than 1000 nM.

For `O=C(NO)C(c1ccccc1)c1ccc(N2CCN(C3CCCC3)CC2)cc1` (stereo not shown) [Compound 5-77, 2-(4-(4-cyclopentylpiperazin-1-yl)phenyl)-N-hydroxy-2-phenylacetamide], the IC50 was less than 1000 nM.

With `O=C(NO)C(c1ccccc1)c1ccc(N2C[C@@H]3C[C@H]2CO3)cc1` (stereo partly drawn) [Compound 5-78, 2-(4-((1S,4S)-2-oxa-5-azabicyclo[2.2.1]heptan-5-yl)phenyl)-N-hydroxy-2-phenylacetamide], the IC50 was less than 1000 nM.
